Experiments:
[1] = target: Cyclin-dependent kinase 7/ cyclin H (Homo sapiens) (UniProt P51946+P50613); assay: Inhibition of CDK7/cyclin H (unknown origin) at 10 uM by ADP-Glo assay relative to control; assay type: protein-complex assay
[2] = target: CDK9/Cyclin K (Homo sapiens) (UniProt P50750+O75909); assay: Inhibition of CDK9/cyclin K (unknown origin) at 10 uM by ADP-Glo assay relative to control; assay type: protein-complex assay
HCT-116 [3] = assay: Antiproliferative activity against human HCT-116 cells assessed as cell growth inhibition at 10 uM incubated for 48 hrs by MTT assay relative to control; assay type: functional
MIA PaCa-2 [4] = assay: Antiproliferative activity against human MIA PaCa-2 cells assessed as cell growth inhibition at 10 uM incubated for 48 hrs by MTT assay relative to control; assay type: functional
[5] = Antiproliferative activity against HEK293 cells assessed as cell growth inhibition at 10 uM incubated for 48 hrs by MTT assay relative to control; assay type: toxicity, cell-based; settings: human
[6] = target: Cyclin-dependent kinase 7/ cyclin H (Homo sapiens, UniProt P50613); assay: Inhibition of CDK7/cyclin H (unknown origin) by ADP-Glo assay; assay type: protein-complex assay
CDK9/Cyclin K = CDK9/Cyclin K (Homo sapiens, UniProt P50750); assay: Inhibition of CDK9/cyclin K (unknown origin) by ADP-Glo assay; assay type: protein-complex assay
CDK9/cyclin T1 = CDK9/cyclin T1 (Homo sapiens, UniProt P50750); assay: Inhibition of CDK9/cyclin T1 (unknown origin) by ADP-Glo assay; assay type: protein-complex assay
HCT-116 [7] = assay: Antiproliferative activity against human HCT-116 cells assessed as cell growth inhibition incubated for 48 hrs by MTT assay; assay type: functional
MIA PaCa-2 [8] = assay: Antiproliferative activity against human MIA PaCa-2 cells assessed as cell growth inhibition incubated for 48 hrs by MTT assay; assay type: functional
[9] = Antiproliferative activity against HEK293 cells assessed as cell growth inhibition incubated for 48 hrs by MTT assay; assay type: toxicity, cell-based; settings: human
MIA PaCa-2 [10] = assay: Induction of intracellular ROS generation in human MIA PaCa-2 cells incubated for 48 hrs by DCFDA dye based analysis; assay type: functional, cell-based
MIA PaCa-2 [11] = assay: Induction of mitochondrial membrane potential loss in human MIA PaCa-2 cells incubated for 48 hrs by Rhodamine-123 dye based analysis; assay type: functional, cell-based
MIA PaCa-2 [12] = assay: Induction of apoptosis in human MIA PaCa-2 cells assessed as apoptotic body formation incubated for 48 hrs by DAPI staining based analysis; assay type: functional, cell-based
MIA PaCa-2 [13] = assay: Induction of apoptosis in human MIA PaCa-2 cells assessed as chromatin condensation incubated for 48 hrs by DAPI staining based analysis; assay type: functional, cell-based
[14] = Metabolic stability in human liver microsomes assessed as drug metabolism at 10 uM measured after 30 mins in presence of NADPH by HPLC analysis; assay type: ADME, Microsome; settings: read-out: Drug metabolism
[15] = Metabolic stability in mouse liver microsomes assessed as drug metabolism at 10 uM measured after 30 mins in presence of NADPH by HPLC analysis; assay type: ADME, Microsome; settings: read-out: Drug metabolism
[16] = C0 in BALB/c mouse at 5 mg/kg, iv measured for 6 hrs by LC-MS/MS analysis; assay type: ADME, organism-based; settings: in vivo
[17] = AUC(0 to t) in BALB/c mouse at 5 mg/kg, iv measured for 6 hrs by LC-MS/MS analysis; assay type: ADME, organism-based; settings: in vivo
[18] = AUC(0 to infinity) in BALB/c mouse at 5 mg/kg, iv measured for 6 hrs by LC-MS/MS analysis; assay type: ADME, organism-based; settings: in vivo
[19] = Half life in BALB/c mouse at 5 mg/kg, iv measured for 6 hrs by LC-MS/MS analysis; assay type: ADME, organism-based; settings: in vivo
[20] = Volume of distribution in BALB/c mouse at 5 mg/kg, iv measured for 6 hrs by LC-MS/MS analysis; assay type: ADME, organism-based; settings: in vivo
[21] = Clearance in BALB/c mouse at 5 mg/kg, iv measured for 6 hrs by LC-MS/MS analysis; assay type: ADME, organism-based; settings: in vivo
[22] = Cmax in BALB/c mouse at 30 mg/kg, po measured for 6 hrs by LC-MS/MS analysis; assay type: ADME, organism-based; settings: in vivo
[23] = Tmax in BALB/c mouse at 30 mg/kg, po measured for 6 hrs by LC-MS/MS analysis; assay type: ADME, organism-based; settings: in vivo
[24] = AUC(0 to t) in BALB/c mouse at 30 mg/kg, po measured for 6 hrs by LC-MS/MS analysis; assay type: ADME, organism-based; settings: in vivo
[25] = AUC(0 to infinity) in BALB/c mouse at 30 mg/kg, po measured for 6 hrs by LC-MS/MS analysis; assay type: ADME, organism-based; settings: in vivo
[26] = Half life in BALB/c mouse at 30 mg/kg, po measured for 6 hrs by LC-MS/MS analysis; assay type: ADME, organism-based; settings: in vivo
[27] = Volume of distribution in BALB/c mouse at 30 mg/kg, po measured for 6 hrs by LC-MS/MS analysis; assay type: ADME, organism-based; settings: in vivo
[28] = Clearance in BALB/c mouse at 30 mg/kg, po measured for 6 hrs by LC-MS/MS analysis; assay type: ADME, organism-based; settings: in vivo
[29] = Metabolic stability in human liver microsomes assessed as compound remaining at 10 uM measured after 30 mins in presence of NADPH by HPLC analysis; assay type: ADME, Microsome; settings: 0.5 h
[30] = Metabolic stability in mouse liver microsomes assessed as compound remaining at 10 uM measured after 30 mins in presence of NADPH by HPLC analysis; assay type: ADME, Microsome; settings: 0.5 h
[31] = C0 in BALB/c mouse at 2.5 mg/kg, iv measured for 6 hrs by LC-MS/MS analysis; assay type: ADME, organism-based; settings: in vivo
[32] = AUC(0 to t) in BALB/c mouse at 2.5 mg/kg, iv measured for 6 hrs by LC-MS/MS analysis; assay type: ADME, organism-based; settings: in vivo
[33] = AUC(0 to infinity) in BALB/c mouse at 2.5 mg/kg, iv measured for 6 hrs by LC-MS/MS analysis; assay type: ADME, organism-based; settings: in vivo
[34] = Half life in BALB/c mouse at 2.5 mg/kg, iv measured for 6 hrs by LC-MS/MS analysis; assay type: ADME, organism-based; settings: in vivo
[35] = Volume of distribution in BALB/c mouse at 2.5 mg/kg, iv measured for 6 hrs by LC-MS/MS analysis; assay type: ADME, organism-based; settings: in vivo
[36] = Clearance in BALB/c mouse at 2.5 mg/kg, iv measured for 6 hrs by LC-MS/MS analysis; assay type: ADME, organism-based; settings: in vivo

Sequence of Cyclin-dependent kinase 7/ cyclin H (P51946 whole entry): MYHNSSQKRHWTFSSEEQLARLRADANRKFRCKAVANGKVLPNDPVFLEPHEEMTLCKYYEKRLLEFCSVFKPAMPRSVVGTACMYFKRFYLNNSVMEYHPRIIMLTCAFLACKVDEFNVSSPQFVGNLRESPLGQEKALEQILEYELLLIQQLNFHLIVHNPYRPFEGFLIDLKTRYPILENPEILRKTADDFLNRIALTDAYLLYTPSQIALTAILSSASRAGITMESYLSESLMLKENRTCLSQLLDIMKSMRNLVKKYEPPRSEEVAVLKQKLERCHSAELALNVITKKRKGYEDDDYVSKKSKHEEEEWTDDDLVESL
Sequence of Cyclin-dependent kinase 7/ cyclin H (P50613 whole entry): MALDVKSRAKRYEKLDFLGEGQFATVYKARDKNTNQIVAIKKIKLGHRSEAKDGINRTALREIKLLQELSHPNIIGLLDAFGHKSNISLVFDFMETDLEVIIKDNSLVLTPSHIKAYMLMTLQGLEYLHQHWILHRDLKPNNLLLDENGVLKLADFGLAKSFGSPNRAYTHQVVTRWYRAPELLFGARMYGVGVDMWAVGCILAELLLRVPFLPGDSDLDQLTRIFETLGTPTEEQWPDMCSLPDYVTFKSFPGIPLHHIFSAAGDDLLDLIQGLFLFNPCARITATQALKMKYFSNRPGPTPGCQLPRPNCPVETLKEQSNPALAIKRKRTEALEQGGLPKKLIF
Sequence of CDK9/Cyclin K (P50750 whole entry): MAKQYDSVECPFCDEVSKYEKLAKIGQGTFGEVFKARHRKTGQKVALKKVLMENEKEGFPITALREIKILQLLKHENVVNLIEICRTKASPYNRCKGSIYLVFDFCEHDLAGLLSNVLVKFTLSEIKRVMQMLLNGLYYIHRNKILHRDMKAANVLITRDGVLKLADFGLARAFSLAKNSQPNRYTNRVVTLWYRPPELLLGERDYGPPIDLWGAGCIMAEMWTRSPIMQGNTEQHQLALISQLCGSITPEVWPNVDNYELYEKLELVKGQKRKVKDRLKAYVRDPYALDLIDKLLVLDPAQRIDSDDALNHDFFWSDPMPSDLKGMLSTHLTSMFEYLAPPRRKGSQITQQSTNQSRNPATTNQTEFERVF
Sequence of CDK9/Cyclin K (O75909 whole entry, further chain): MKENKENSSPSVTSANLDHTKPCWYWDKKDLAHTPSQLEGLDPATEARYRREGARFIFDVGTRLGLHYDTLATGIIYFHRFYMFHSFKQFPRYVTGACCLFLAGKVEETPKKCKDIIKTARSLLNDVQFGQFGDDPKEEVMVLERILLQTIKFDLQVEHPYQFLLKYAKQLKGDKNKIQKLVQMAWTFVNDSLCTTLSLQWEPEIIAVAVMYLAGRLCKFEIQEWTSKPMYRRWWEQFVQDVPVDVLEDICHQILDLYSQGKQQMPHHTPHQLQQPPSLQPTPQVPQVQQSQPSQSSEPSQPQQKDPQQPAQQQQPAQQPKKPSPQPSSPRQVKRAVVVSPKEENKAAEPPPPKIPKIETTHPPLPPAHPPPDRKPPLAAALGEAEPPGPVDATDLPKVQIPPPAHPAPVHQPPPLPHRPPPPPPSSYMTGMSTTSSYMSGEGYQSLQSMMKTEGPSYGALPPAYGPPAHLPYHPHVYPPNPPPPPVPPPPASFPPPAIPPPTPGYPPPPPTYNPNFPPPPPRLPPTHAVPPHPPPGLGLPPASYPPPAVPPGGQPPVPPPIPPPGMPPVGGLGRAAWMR
Sequence of CDK9/cyclin T1 (O60563 whole entry): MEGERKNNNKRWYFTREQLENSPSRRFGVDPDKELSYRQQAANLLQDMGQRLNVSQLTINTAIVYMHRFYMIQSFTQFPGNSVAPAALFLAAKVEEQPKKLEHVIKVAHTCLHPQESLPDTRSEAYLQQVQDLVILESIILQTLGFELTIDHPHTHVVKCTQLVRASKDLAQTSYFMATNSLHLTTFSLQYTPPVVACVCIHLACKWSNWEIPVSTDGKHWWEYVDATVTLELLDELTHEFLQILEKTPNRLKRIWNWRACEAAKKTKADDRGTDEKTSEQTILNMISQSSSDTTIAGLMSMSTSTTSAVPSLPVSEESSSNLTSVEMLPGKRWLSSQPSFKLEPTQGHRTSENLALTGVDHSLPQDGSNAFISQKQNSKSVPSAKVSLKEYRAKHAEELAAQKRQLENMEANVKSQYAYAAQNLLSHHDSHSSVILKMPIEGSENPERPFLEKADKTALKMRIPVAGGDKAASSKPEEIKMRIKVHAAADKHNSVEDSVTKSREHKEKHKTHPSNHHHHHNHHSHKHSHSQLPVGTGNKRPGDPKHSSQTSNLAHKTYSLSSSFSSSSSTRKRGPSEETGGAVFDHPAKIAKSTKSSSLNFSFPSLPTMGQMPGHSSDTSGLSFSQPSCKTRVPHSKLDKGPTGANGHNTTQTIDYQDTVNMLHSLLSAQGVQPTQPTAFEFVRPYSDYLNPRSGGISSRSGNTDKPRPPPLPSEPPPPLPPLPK
Sequence of CDK9/cyclin T1 (P50750 whole entry): as the sequence (P50750 whole entry) above

| inhibition [1] [%] | inhibition [2] [%] | IC50 [6] [nM] | IC50 (CDK9/Cyclin K) [nM] | IC50 (CDK9/cyclin T1) [nM] | GI50 (HCT-116 [7]) [nM] | GI50 (MIA PaCa-2 [8]) [nM] | Cmax [22] [ng/mL] | Tmax [23] [min] | AUC(0-t) at 6 h [24] [ng·h/mL] | AUC(0-inf) [25] [ng·h/mL] | half-life [26] [min] | SMILES | inhibition at 10 µM (HCT-116 [3]) [%] | inhibition at 10 µM (MIA PaCa-2 [4]) [%] | inhibition at 48 h, 10 µM [5] [%] | GI50 at 48 h [9] [nM] | Activity (MIA PaCa-2 [10]) | Activity (MIA PaCa-2 [11]) | Activity (MIA PaCa-2 [12]) | Activity (MIA PaCa-2 [13]) | also measured |
| --- | --- | --- | --- | --- | --- | --- | --- | --- | --- | --- | --- | --- | --- | --- | --- | --- | --- | --- | --- | --- | --- |
| 28.7 | 41.7 | 540 | 2280 | 150 | 2530 | 5530 | 817 | 30 | 400 | 401 | 9.6 | COc1cc(O)c2c(=O)cc(/C=C/c3c(F)cccc3Cl)oc2c1[C@H]1CC[N+](C)([O-])C[C@H]1O (stereo not given in full) | 25.2 | 24.9 | 14.9 | 81500 | Dose-Dependent Effect | Dose-Dependent Effect | Dose-Dependent Effect | Dose-Dependent Effect | metabolised at 0.5 h, 10 µM [14]: 16%; metabolised at 0.5 h, 10 µM [15]: 16%; C0 at 6 h [16]: 19100 ng/mL; AUC(0-t) at 6 h [17]: 956 ng·h/mL; AUC(0-inf) [18]: 957 ng·h/mL; half-life [19]: 6 min; Vd [20]: 0.8 L/kg; clearance [21]: 86.7 mL/min/kg; Vd [27]: 17 L/kg; CL/F [28]: 1250 mL/min/kg |
| 62.7 | 61.7 | 1460 | 2810 | 166 | 5100 | 6070 | 731 | 4.98 | 510 | 525 | 102 | C[N+]1([O-])CC[C@H](c2c(O)cc(O)c3c(=O)cc(/C=C/c4ccccc4Cl)oc23)[C@H](O)C1 (stereo not given in full) | 67 | 56.3 | 29.7 | 90300 | Dose-Dependent Effect | Dose-Dependent Effect | Dose-Dependent Effect | Dose-Dependent Effect | Stability [29]: Stable; Stability [30]: Stable; C0 at 6 h [31]: 5720 ng/mL; AUC(0-t) at 6 h [32]: 341 ng·h/mL; AUC(0-inf) [33]: 346 ng·h/mL; half-life [34]: 17.4 min; Vd [35]: 3 L/kg; clearance [36]: 120 mL/min/kg; Vd [27]: 32.4 L/kg; CL/F [28]: 953 mL/min/kg |
